In PubChem BioAssay (NCI):
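All cell lines were grown in 96-well plates and treated with compound for 48 hours. Here, GI50 denotes the concentration required for 50% inhibition of growth. The concentration for full growth arrest is given as TGI.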

Assays:
Assay in all cases: NCI-60 cell line screen, 48 h
NCI-H226 lung = test system: NCI-H226 lung
NCI-H23 lung = test system: NCI-H23 lung
NCI-H460 lung = test system: NCI-H460 lung
NCI-H522 lung = test system: NCI-H522 lung
NCI/ADR-RES ovarian = test system: NCI/ADR-RES ovarian
OVCAR-3 ovarian = test system: OVCAR-3 ovarian
OVCAR-4 ovarian = test system: OVCAR-4 ovarian
OVCAR-5 ovarian = test system: OVCAR-5 ovarian
OVCAR-8 ovarian = test system: OVCAR-8 ovarian
PC-3 prostate = test system: PC-3 prostate
RPMI-8226 leukemia = test system: RPMI-8226 leukemia
RXF 393 renal = test system: RXF 393 renal
SF-268 CNS = test system: SF-268 CNS
SF-295 CNS = test system: SF-295 CNS
SF-539 CNS = test system: SF-539 CNS
SK-MEL-2 melanoma = test system: SK-MEL-2 melanoma
SK-MEL-28 melanoma = test system: SK-MEL-28 melanoma
SK-MEL-5 melanoma = test system: SK-MEL-5 melanoma
SK-OV-3 ovarian = test system: SK-OV-3 ovarian
SN12C renal = test system: SN12C renal
SNB-19 CNS = test system: SNB-19 CNS
SNB-75 CNS = test system: SNB-75 CNS
SR leukemia = test system: SR leukemia
SW-620 colon = test system: SW-620 colon
T-47D breast = test system: T-47D breast
TK-10 renal = test system: TK-10 renal
U251 CNS = test system: U251 CNS
UACC-257 melanoma = test system: UACC-257 melanoma
UACC-62 melanoma = test system: UACC-62 melanoma
UO-31 renal = test system: UO-31 renal

## Nc1nc(-c2ccccc2)c(N=Nc2ccc(Cl)cc2Cl)s1
NCI-H226 lung
  TGI: 10.4 µM
NCI-H23 lung
  GI50: 2.91 µM
  TGI: 13.5 µM
NCI-H460 lung
  GI50: 2.92 µM
  TGI: 11.7 µM
NCI-H522 lung
  GI50: 2.91 µM
  TGI: 13.3 µM
NCI/ADR-RES ovarian
  GI50: 3.03 µM
  TGI: 10.9 µM
OVCAR-3 ovarian
  GI50: 3.57 µM
  TGI: 13.2 µM
OVCAR-4 ovarian
  GI50: 3.82 µM
  TGI: 17 µM
OVCAR-5 ovarian
  GI50: 3.58 µM
  TGI: 15.4 µM
OVCAR-8 ovarian
  GI50: 5.82 µM
  TGI: 18.7 µM
PC-3 prostate
  GI50: 3.16 µM
  TGI: 12.4 µM
RPMI-8226 leukemia
  GI50: 3.31 µM
  TGI: 15.2 µM
RXF 393 renal
  GI50: 3.02 µM
  TGI: 11.7 µM
SF-268 CNS
  GI50: 4.91 µM
  TGI: 17.8 µM
SF-295 CNS
  GI50: 3.23 µM
  TGI: 13.2 µM
SF-539 CNS
  GI50: 2.78 µM
  TGI: 10.5 µM
SK-MEL-2 melanoma
  GI50: 3.03 µM
  TGI: 12.8 µM
SK-MEL-28 melanoma
  GI50: 4.69 µM
  TGI: 16.5 µM
SK-MEL-5 melanoma
  GI50: 2.6 µM
  TGI: 8.66 µM
SK-OV-3 ovarian
  GI50: 3.86 µM
  TGI: 16.3 µM
SN12C renal
  GI50: 3.81 µM
  TGI: 15.3 µM
SNB-19 CNS
  GI50: 6.02 µM
  TGI: 18.7 µM
SNB-75 CNS
  GI50: 1.57 µM
  TGI: 8.52 µM
SR leukemia
  GI50: 3.1 µM
  TGI: 12.8 µM
SW-620 colon
  GI50: 2.88 µM
  TGI: 13.5 µM
T-47D breast
  GI50: 1.03 µM
  TGI: 6.56 µM
TK-10 renal
  GI50: 5.25 µM
  TGI: 14.9 µM
U251 CNS
  GI50: 4.28 µM
  TGI: 15.8 µM
UACC-257 melanoma
  GI50: 4.13 µM
  TGI: 16.3 µM
UACC-62 melanoma
  GI50: 2.45 µM
  TGI: 12 µM
UO-31 renal
  GI50: 1.45 µM
  TGI: 11.7 µM
